Several values for one entry are separate records, joined by “and”; a condition that tells them apart may be missing. Identical values can stand only once. Like-named read-outs stand apart in the source and are kept apart here.
Key:
C57BL/6J mice [1] = experiment: Open field test (OFT) after chronic administration; type: in vivo; details: chronic 10 mg kg−1 per day
Method: This test was used to assess anxiety‐related behaviors in the mice. C57BL/6J mice were individually habituated to a 40 × 40 × 40 cm^3 open field arena under dim light for […]. Locomotor activity during the final 5 min was digitally recorded (30 fps) and analyzed using Tracking Master (Future Life Science (Shanghai) Co., Ltd., Shanghai, China). The primary endpoints included the total ambulatory distance (cm) and center‐zone exploration frequency (20 × 20 cm^2 central area).

mice = experiment: Rotarod test (RT); type: in vivo; details: chronic 10 mg kg−1 per day
Method: The rotarod test was designed to evaluate the coordination and motor performance of rodents. The speed and time were set for the rod rotators. All experimental mice were allowed to adapt to a lower speed (5 rpm). For the formal test, the mice were placed on a rod spinning at 20 rpm, and the duration that the mice were able to hold on the rod at this speed was recorded. The maximum test duration was 20 min.

Kir4.1 T128A = target: T1, Kir4.1 T128A (Homo sapiens, UniProt P78508, T128A); experiment: Whole-cell patch clamp, Kir4.1 point mutant T128A; type: cell-based
T1 construct: expressed in transfected cells; host or cells: CHO-K1
T1 sequence (P78508 1-379 T128A): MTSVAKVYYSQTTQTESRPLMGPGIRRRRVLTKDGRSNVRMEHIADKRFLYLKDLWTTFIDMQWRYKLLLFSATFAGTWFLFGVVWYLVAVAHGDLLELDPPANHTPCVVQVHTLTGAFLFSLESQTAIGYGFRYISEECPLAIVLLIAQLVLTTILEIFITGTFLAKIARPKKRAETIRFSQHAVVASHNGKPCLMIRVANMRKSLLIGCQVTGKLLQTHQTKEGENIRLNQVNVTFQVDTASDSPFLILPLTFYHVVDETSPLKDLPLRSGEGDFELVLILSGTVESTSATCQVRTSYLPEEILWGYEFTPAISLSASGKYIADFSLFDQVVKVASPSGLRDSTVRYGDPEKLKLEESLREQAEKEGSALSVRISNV
Method: (§1) Plasmids encoding WT human potassium channels Kir1.1, Kir2.1, Kir2.2, Kir4.1, and Kir4.2 were obtained from the Beijing Genomics Institute. All point mutations were constructed using the QuickChange II Site‐Directed Mutagenesis Kit (Stratagene) and subsequently verified by sequencing.
(§2) CHO‐K1 cells were maintained in DMEM/F12 growth medium containing 10% fetal bovine serum. Plasmids encoding the target genes (3600 ng) and enhanced green fluorescent protein (400 ng) were cotransfected into cells using Lipofectamine 2000 (Invitrogen) in accordance with the manufacturer's instructions. Cells were seeded onto poly‐d‐lysine (PDL)‐coated glass coverslips 1 h prior to electrophysiological recordings. All cells were cultured under standard conditions of 5% CO2 at 37 °C.
(§3) Whole‐cell patch‐clamp recordings were obtained either in transiently transfected CHO‐K1 cells or in primary cultured astrocytes at room temperature using standard patch‐clamp techniques with an Axopatch‐700B amplifier (Axon Instruments). The signals were filtered at 2 kHz and sampled at 20 kHz using the Digidata 1440A interface (Axon Instruments). The resistance of borosilicate glass pipettes was typically 2–4 MΩ when filled with the internal solution. Drug application was facilitated using a BPS perfusion system (ALA Scientific Instruments). Macroscopic currents generated by expressed potassium channels were recorded under the voltage‐clamp conditions with an internal pipette solution composed of (in mM): 140 KCl, 5 NaCl, 1 CaCl2, 1 MgCl2, 10 HEPES, and 10 EGTA, pH 7.2 adjusted with KOH. The external solution contained (in mM): 140 NaCl, 5 KCl, 2 CaCl2, 1 MgCl2, 10 glucose, and 10 HEPES, pH 7.4 adjusted with NaOH. Currents were elicited with a hyperpolarized voltage at −120 mV from the holding potential of −80 mV, followed by a ramp voltage depolarizing to +50 mV. Astrocytic resting membrane potentials were recorded under current‐clamp conditions (I = 0 pA) using standard internal and external solutions, determined immediately after achieving whole‐cell mode.

C57BL/6J mice [2] = experiment: Novelty-suppressed feeding test (NSFT); type: in vivo
Method: The mice were individually housed in new cages and deprived of food for 24 h. The testing equipment was a brightly lit plastic box measuring 40 × 40 × 30 cm^3 with a light intensity of 1100–1200 lux. Each mouse was positioned in a corner of the device with one food pellet located at the center. The latency to start chewing food was recorded within 5 min. Immediately thereafter, the mice were placed back in their home cage with pre‐measured food, and the amount consumed in the next 5 min was used as a baseline to account for appetite changes that might affect the outcome.

Kir2.1 = target: T2, Kir2.1 (Homo sapiens, UniProt P63252); experiment: Whole-cell patch clamp, Kir2.1; type: cell-based
T2 construct: host or cells: CHO-K1
T2 sequence (P63252 1-427): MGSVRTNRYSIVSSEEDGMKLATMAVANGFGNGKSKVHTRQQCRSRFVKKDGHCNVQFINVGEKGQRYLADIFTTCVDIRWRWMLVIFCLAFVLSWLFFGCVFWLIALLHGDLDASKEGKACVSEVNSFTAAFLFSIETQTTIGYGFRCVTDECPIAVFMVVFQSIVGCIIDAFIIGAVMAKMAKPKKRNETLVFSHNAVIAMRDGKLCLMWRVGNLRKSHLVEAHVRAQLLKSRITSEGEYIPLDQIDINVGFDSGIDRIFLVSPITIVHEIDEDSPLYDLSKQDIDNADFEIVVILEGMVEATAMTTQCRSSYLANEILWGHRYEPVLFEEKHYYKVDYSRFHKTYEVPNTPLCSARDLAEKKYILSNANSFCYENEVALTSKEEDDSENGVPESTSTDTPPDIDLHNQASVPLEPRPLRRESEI
Method: as §1, §2, §3

c1ccc2c(c1)oc1ccc(Nc3ccnc(NCCCN4CCOCC4)n3)cc12 [JX3212, N^4-(dibenzo[b,d]furan-2-yl)-N^2-(3-morpholinopropyl)pyrimidine-2,4-diamine]
OFT total and central distance traveled (in words) (C57BL/6J mice [1]): no pronounced differences
rotarod falling latency vs vehicle (in words) (mice): showed no significant effects
inhibition at 3 µM (Kir4.1 T128A; 3 µM, mean ± SEM, read-out: current inhibition, Kir4.1 T128A): 33.9 ± 4.58%
Mutation: T128A inhibition, single recordings (Kir4.1 T128A; JX3212 3 µM (Fig 2D)): 37.4256 and 28.9608 and 38.1757
inhibition at 3 µM (Kir4.1 T128A; JX3212 3 µM (Fig 2D), read-out: Mutation: T128A inhibition, single recordings): 31.1%
effective threshold dose in NSFT (C57BL/6J mice [2]; acute administration, doses 1, 3, 10 mg kg−1): 10 mg/kg
food intake in home cage after NSFT (in words) (C57BL/6J mice [2]; repeated administration, vs vehicle): remained comparable to that in the vehicle group
Food intake in home cage, single mice (C57BL/6J mice [2]; repeated doses, 3 mg/kg (Fig 3F), 3 mg/kg): 0.14 and 0.11 and 0.12 and 0.1 and 0.09
NSFT antidepressant-like response after repeated administration (in words) (C57BL/6J mice [2]; seven days, imipramine 15 mg kg−1, JX3212 3/10 mg kg−1): elicited significant antidepressant‐like responses
NSFT latency to feed (in words) (C57BL/6J mice [2]; single dose 10 mg kg−1 i.p., 1 h after administration): significantly reduced the latency to feed
inhibition at 3 µM (Kir2.1; 3 µM, mean ± SEM, read-out: inhibition of Kir2.1): 49.9 ± 4.35%
Kir isoforms: Kir2.1 inhibition, single recordings (Kir2.1; JX3212 3 µM (Fig 2A)): 46.776 and 54.8667
inhibition at 3 µM (Kir2.1; JX3212 3 µM (Fig 2A), read-out: Kir isoforms: Kir2.1 inhibition, single recordings): 48.1%
